# Results reported in US11130766B2, “Deuterated thienopiperidine derivatives, manufacturing method, and application thereof” (JIANGSU TASLY DIYI PHARMACEUTICAL CO., LTD., priority 2015, dated 2021).
# Marks after values point to notes of the source that are not given here.
# What was measured:
# [1] = system: Rat Arteriovenous Thrombus Loop Model; conditions: SD rat, 1.0 mg/kg oral gavage, 2 h after administration, 15 min circulation
# Excerpt: genus, strain: SD rat, • Provider: Slac • Weight: 250-350 g • Sex: male • Animal number: 30
# Apparatus and Materials • Swab, dry tampon, alcohol pad, anerdian tampon. • Surgical scissor, ophthalmic forceps, hemostatic forceps, microsurgical scissor, microsurgical forceps, artery clamps. • 3-0 surgical suture, thick PE tube (I.D.*O.D.=1.14 mm*1.63 mm, 8 cm long), think PE tube (I.D.*O.D.=0.72 mm*1.22 mm, 6 cm long). • Surgical board, binding rope, timer, precise electronic balance, weighing paper. • Syringe, normal saline.
# 7. Experimental Method • After arrival, the animals were let adapt to the environment for 1 week and fasted for 16 hours prior to the test. • The arteriovenous blood loop circulation was started 2 h after oral administration of the test compounds and 4 h after oral administration of clopidogrel. • The rats were anesthetized with pentobarbital sodium (50 mg/kg, ip) 15 min before the arteriovenous blood loop circulation was started. • The left external jugular vein and the right carotid artery were separated and inserted with thin PE tubes respectively. • Two PE tubes were connected with another thick PE tube with a length of 8 cm to form a circulation passage. There's a 6 cm surgical suture (3-0) in the thick PE tube. • 15 min after the circulation passage was opened, the blood flow was blocked, the filament was taken out and weighed after the blood was sucked out. The thrombus weight was obtained after subtraction of the weight of the filament itself.
# Rat Tail Bleeding Model = conditions: SD rat, 1.0 mg/kg oral gavage, 2 h after administration
# Experimental: genus, strain SD rat, • Provider: Slac • Weight: 250-350 g • Sex: male • Animal number: 30
# Experimental Method: • The animals were allowed adapt to the environment after arrival for 1 week and fasted for 16 hours prior to the experiment. • The tail bleeding time started to be recorded 2 h after oral administration of the test compounds and 4 h after oral administration of clopidogrel. • The rats were anesthetized with pentobarbital sodium (50 mg/kg, ip) 10 min prior to the recording of the tail bleeding time, after the rat was completely anesthetized and reaching the detection time, the tail was cut at 1.3 mm from the rat tail-tip with a scissor and perpendicularly immerged into a saline at 37° C. Timing recording was not started until the blood flow appeared. • The timing recording was stopped when the bleeding time interval was longer than 20 seconds. The maximum observation time for the blood flow was set for 40 minutes. If it was longer than 40 minutes, the timing recording was stopped and the time was recorded as 40 minutes.
# [2] = system: ADP induced platelet aggregation; assay: ADP induced platelet aggregation, maximum aggregation rate after administration to rats; assay type: in vivo, Wistar male rats; set-up: unit not given here; conditions: 3 mg/kg
# Experimental: Addition of small dose of ADP (concentration less than 0.9 μmol/L) into the platelet suspension could lead to rapid platelet aggregation, followed by quick disaggregation; if moderate dose of ADP (about 1.0 μmol/L) was added, then the second irreversible aggregation phase appeared not long after the end of the first aggregation phase and the disaggregation. The maximum aggregation rate of the irreversible aggregation phase was used to evaluate the effect of the test samples on the function of blood coagulation.
# Animals: Wistar male rats, weighing 230-250 g, were purchased from Vital River Laboratory Animal Technology Co., Ltd.
# Reagent: ADP, Sigma Corporation.
# Test samples: 16 test samples were provided by the Tasly Group; referred to China patent application 201310428052.4 for manufacturing method of TSC-1˜4 and TSC-6˜9.
# Dose of administration: the test samples were suspended with 0.25% CMC, administered 3 mg/kg weight, volume of administration: 2 mL.
# 2 Hours after administration, the rats were anesthetized with pentobarbital sodium, and blood was drawn from the abdominal aorta, anticoagulated with sodium citrate with a ratio of 1:9, and centrifuged to obtain the platelet-rich plasma and platelet-poor plasma, with the mixed ratio of the platelet-poor plasma to platelet-rich plasma=3:1.
# esterase = assay: Esterase hydrolysis rates of TSD-8 and clopidogrel bisulfate, in vitro incubation in rat whole blood; assay type: in vitro ADME; set-up: sample test results (concentration) Num. 1 / sample test results (concentration) Num. 2 / sample test results (concentration) Num. 3 / sample test results (concentration) Mean: unit not given here; conditions: for sample test results (concentration) Mean / sample test results (concentration) Num. 1 / sample test results (concentration) Num. 2 / sample test results (concentration) Num. 3: rat whole blood, 37° C., 30 μg/mL
# [3] = ADP induced, rats, blood drawn 2 hours after administration
structure (smiles),measurement,setting,value
[2H]C([2H])([2H])OC(=O)[C@H](c1ccccc1Cl)N1CCc2sc(OC(C)=O)cc2C1 [I-1],Thrombus,[1],25.6 mg
same,Tail Bleeding Time,Rat Tail Bleeding Model,950 s
COC(=O)[C@H](c1ccccc1Cl)N1CCc2sc(OP(=O)(O)O)cc2C1 [TSC-6],Thrombus (mg),[1],31.4* mg
same,Maximum Platelet Aggregation Rate,"[2]; rat, in vivo",29.6 ± 5.33
same,Tail Bleeding Time,Rat Tail Bleeding Model,635 s
[2H]C([2H])([2H])OC(=O)[C@H](c1ccccc1Cl)N1CCc2sc(OP(=O)(OC)OC)cc2C1 [TSD-1],Maximum Platelet Aggregation Rate,[2]; [3],35.6 ± 3.35
[2H]C([2H])([2H])OC(=O)[C@H](c1ccccc1Cl)N1CCc2sc(OP(=O)(OCC)OCC)cc2C1 [TSD-2],Maximum Platelet Aggregation Rate,[2]; [3],32.7 ± 5.33
[2H]C([2H])([2H])OC(=O)[C@H](c1ccccc1Cl)N1CCc2sc(OP(=O)(OC(C)C)OC(C)C)cc2C1 [TSD-3],Maximum Platelet Aggregation Rate,[2]; [3],28.4 ± 3.27
[2H]C([2H])([2H])OC(=O)[C@H](c1ccccc1Cl)N1CCc2sc(OP(=O)(Oc3ccccc3)Oc3ccccc3)cc2C1 [TSD-4],Maximum Platelet Aggregation Rate,[2]; [3],36.2 ± 4.16
[2H]C([2H])([2H])OC(=O)[C@H](c1ccccc1Cl)N1CCc2sc(OCOP(=O)(OC(C)(C)C)OC(C)(C)C)cc2C1 [TSD-7],Maximum Platelet Aggregation Rate,[2]; [3],27.1 ± 6.21
[2H]C([2H])([2H])OC(=O)[C@H](c1ccccc1Cl)N1CCc2sc(OCOP(=O)(O)O)cc2C1 [TSD-8],hydrolysis rate in the rat whole blood,"esterase; compared with clopidogrel, FIG. 1",slower than that of clopidogrel
same,sample test results (concentration) Mean,esterase; 10 min,391.50
same,sample test results (concentration) Num. 1,esterase; 10 min,531
same,sample test results (concentration) Num. 2,esterase; 10 min,252
same,sample test results (concentration) Mean,esterase; 20 min,290.00
same,sample test results (concentration) Num. 1,esterase; 20 min,336
same,sample test results (concentration) Num. 2,esterase; 20 min,242
same,sample test results (concentration) Num. 3,esterase; 20 min,292
same,sample test results (concentration) Mean,esterase; 30 min,275.33
same,sample test results (concentration) Num. 1,esterase; 30 min,255
same,sample test results (concentration) Num. 2,esterase; 30 min,291
same,sample test results (concentration) Num. 3,esterase; 30 min,280
same,sample test results (concentration) Mean,esterase; 40 min,223.00
same,sample test results (concentration) Num. 1,esterase; 40 min,222
same,sample test results (concentration) Num. 2,esterase; 40 min,219
same,sample test results (concentration) Num. 3,esterase; 40 min,228
same,sample test results (concentration) Mean,esterase; 50 min,101.67
same,sample test results (concentration) Num. 1,esterase; 50 min,112
same,sample test results (concentration) Num. 2,esterase; 50 min,103
same,sample test results (concentration) Num. 3,esterase; 50 min,90
same,sample test results (concentration) Mean,esterase; 60 min,112.00
same,sample test results (concentration) Num. 1,esterase; 60 min,115
same,sample test results (concentration) Num. 2,esterase; 60 min,123
same,sample test results (concentration) Num. 3,esterase; 60 min,98
same,sample test results (concentration) Mean,esterase; 90 min,74.63
same,sample test results (concentration) Num. 1,esterase; 90 min,76.3
same,sample test results (concentration) Num. 2,esterase; 90 min,77.4
same,sample test results (concentration) Num. 3,esterase; 90 min,70.2
same,sample test results (concentration) Mean,esterase; 100 min,55.40
same,sample test results (concentration) Num. 1,esterase; 100 min,52.7
same,sample test results (concentration) Num. 2,esterase; 100 min,63.2
same,sample test results (concentration) Num. 3,esterase; 100 min,50.3
same,sample test results (concentration) Mean,esterase; 110 min,47.90
same,sample test results (concentration) Num. 1,esterase; 110 min,45.7
same,sample test results (concentration) Num. 2,esterase; 110 min,51.5
same,sample test results (concentration) Num. 3,esterase; 110 min,46.5
same,sample test results (concentration) Mean,esterase; 120 min,34.90
same,sample test results (concentration) Num. 1,esterase; 120 min,34.3
same,sample test results (concentration) Num. 2,esterase; 120 min,38.7
same,sample test results (concentration) Num. 3,esterase; 120 min,31.7
same,Maximum Platelet Aggregation Rate,[2]; [3],16.3 ± 4.16
"CC(=O)Oc1cc2c(s1)CCN(C(C(=O)C1CC1)c1ccccc1F)C2 (stereo not shown) [prasugrel, reference compound]",Maximum Platelet Aggregation Rate,[2]; [3],20.72 ± 8.84
